Experimental data: publication PMC7151078, “A Novel NMDA Receptor Antagonist Protects against Cognitive Decline Presented by Senescent Mice” (Pharmaceutics, 2020)

Key:
Assay type in all cases: in vivo, mouse
SAMR1 and SAMP8 mice [1] = assay: Object location test (OLT); details: both treated mice groups (SR1 and SP8), 5 mg/kg/day
Experimental: Male SAMR1 and SAMP8 mice (n = 41) with 20-weeks-old were used to carry out cognitive and molecular analysis. The animals were randomly divided into four groups: SAMR1 control (SR1 Ct) group (n = 11), SAMP8 control (SP8 Ct) group (n = 8), SAMR1 treated with RL-208 (SR1 RL-208 (5 mg/Kg)) group (n = 10) and SAMP8 treated with RL-208 (SP8 RL-208 (5 mg/Kg)) group (n = 12). Animals had free access to food and water, under standard temperature conditions (22±2 °C) and 12h:12h light-dark cycles (300 lux/0 lux). RL-208, (3,4,8,9-tetramethyltetracyclo[4.4.0.0^3,9.0^4,8]dec-1-yl)-methylamine hydrochloride, (5 mg/kg/day) was administered through drinking water for four weeks before starting the cognitive test. RL-208 was administered up to euthanasia (Figure 1A). Water consumption was controlled each week for each cage and strain. Afterwards, RL-208 concentration was adjusted accordingly to reach the optimal dose for each cage. […] Trials were recorded using a camera mounted above the open field area, and the total exploration time was determined by scoring the amount of time (seconds) spent sniffing the object in the new location (TN) and the object in the old location (TO). In order to evaluate the cognitive performance, the DI was calculated, which is defined as (TN-TO)/(TN+TO).

SAMR1 and SAMP8 mice [2] = assay: Hippocampal protein levels by Western blotting; details: hippocampus
Experimental: Male SAMR1 and SAMP8 mice (n = 41) with 20-weeks-old were used to carry out cognitive and molecular analysis. The animals were randomly divided into four groups: SAMR1 control (SR1 Ct) group (n = 11), SAMP8 control (SP8 Ct) group (n = 8), SAMR1 treated with RL-208 (SR1 RL-208 (5 mg/Kg)) group (n = 10) and SAMP8 treated with RL-208 (SP8 RL-208 (5 mg/Kg)) group (n = 12). Animals had free access to food and water, under standard temperature conditions (22±2 °C) and 12h:12h light-dark cycles (300 lux/0 lux). RL-208, (3,4,8,9-tetramethyltetracyclo[4.4.0.0^3,9.0^4,8]dec-1-yl)-methylamine hydrochloride, (5 mg/kg/day) was administered through drinking water for four weeks before starting the cognitive test. RL-208 was administered up to euthanasia (Figure 1A). Water consumption was controlled each week for each cage and strain. Afterwards, RL-208 concentration was adjusted accordingly to reach the optimal dose for each cage. Three days after the behavioural and cognitive tests, mice were euthanized by cervical dislocation. Brains were immediately removed from the skull. The hippocampus and cortex were then isolated and frozen in powdered dry ice. They were maintained at −80 °C for further use. Tissue samples were homogenized in lysis buffer containing phosphatase and protease inhibitors (Cocktail II, Sigma). Total protein levels were obtained, and protein concentration was determined by the method of Bradford. For Western blotting (WB), aliquots of 15 μg of hippocampal protein extraction per sample were used. Protein samples were separated by Sodium dodecyl sulphate-Polyacrylamide gel electrophoresis (SDS-PAGE) (8–20%) and transferred onto Polyvinylidene difluoride (PVDF) membranes (Millipore). Afterwards, membranes were blocked in 5% non-fat milk in Tris-buffered saline (TBS) solution containing 0.1% Tween 20 TBS (TBS-T) for 1 hour at room temperature, followed by overnight incubation at a 4 °C with the primary antibodies listed in Table S1. Then, membranes were washed and incubated with secondary antibodies for 1 hour at room temperature. Immunoreactive proteins were viewed with the chemiluminescence-based detection kit, following the manufacturer’s protocol (ECL Kit, Millipore), and digital images were acquired using ChemiDoc XRS+ System (BioRad). Semi-quantitative analyses were performed using ImageLab software (BioRad), and results were expressed in arbitrary units (AU), considering control protein levels as 100%. Protein loading was routinely monitored by immunodetection of Glyceraldehyde-3-phosphate dehydrogenase (GAPDH).

SAMR1 and SAMP8 mice [3] = assay: Three-chamber test (TCT); details: SAMP8 strain, 5 mg/kg/day, vs SP8 Ct
Experimental: Male SAMR1 and SAMP8 mice (n = 41) with 20-weeks-old were used to carry out cognitive and molecular analysis. The animals were randomly divided into four groups: SAMR1 control (SR1 Ct) group (n = 11), SAMP8 control (SP8 Ct) group (n = 8), SAMR1 treated with RL-208 (SR1 RL-208 (5 mg/Kg)) group (n = 10) and SAMP8 treated with RL-208 (SP8 RL-208 (5 mg/Kg)) group (n = 12). Animals had free access to food and water, under standard temperature conditions (22±2 °C) and 12h:12h light-dark cycles (300 lux/0 lux). RL-208, (3,4,8,9-tetramethyltetracyclo[4.4.0.0^3,9.0^4,8]dec-1-yl)-methylamine hydrochloride, (5 mg/kg/day) was administered through drinking water for four weeks before starting the cognitive test. RL-208 was administered up to euthanasia (Figure 1A). Water consumption was controlled each week for each cage and strain. […]
The three-chamber test (TCT) was used to assess preference for social novelty (time spent with a novel intruder in contrast with a familiar one) and sociability (time spent with rodents). […] Each test consists of 15 minutes and is recorded with a camera. […] The time spent in each chamber was evaluated. Then, an intruder (same-sex and age) was added to one of the rooms in a metal cup, and behaviour is recorded for 10 minutes. The time spent in each chamber is evaluated as well as the time interacting with the intruder (e.g., sniffing, rears, entries in each chamber).

For `CC12CC3CC1(C)C1(C)CC3(CN)CC21C.Cl` [RL-208, (3,4,8,9-tetramethyltetracyclo [4.4.0.0^3,9.0^4,8]dec-1-yl)methylamine hydrochloride], the “OLT spatial memory (DI)” value (SAMR1 and SAMP8 mice [1]) was “significant higher DI values”, the PSD95 protein levels (SAMR1 and SAMP8 mice [2]; RL-208 treated mice) was “augmented but did not reach significance in SP8 mice” and the “Synaptophysin (SYN) protein levels” value (SAMR1 and SAMP8 mice [2]; RL-208 treated mice) was “significant increase”. For the same molecule, the ADAM10 protein levels (SAMR1 and SAMP8 mice [2]; SAMP8) was “prevented the loss”, the SNAP25 protein levels (SAMR1 and SAMP8 mice [2]; SP8 RL-208) was “significant-high” and the “CDK5 activation (p-CDK5/CDK5 ratio)” value (SAMR1 and SAMP8 mice [2]; SP8 RL-208 vs control group) was “significantly reduced”. The p25/p35 ratio (SAMR1 and SAMP8 mice [2]; SP8 RL-208 vs control group) was “significantly reduced”, the GPX1 protein levels (SAMR1 and SAMP8 mice [2]; SP8 mice, not in SR1) was “increased, in a significant way” and the SOD1 protein levels (SAMR1 and SAMP8 mice [2]; SP8 mice, not in SR1) was “increased, in a significant way”. For the same molecule, the “120BPD (Spectrin breakdown product)” value (SAMR1 and SAMP8 mice [2]; SP8 strain, not in SR1) was “reduced”, the Calpain-1 protein levels (SAMR1 and SAMP8 mice [2]; SP8 strain, not in SR1) was “reduced” and the Caspase-3 protein levels (SAMR1 and SAMP8 mice [2]; SP8 strain, not in SR1) was “reduced”. The TrkB-FL protein levels (SAMR1 and SAMP8 mice [2]; both SR1 and SP8) was “increased significantly”, the “p-NMDAR (Tyr1472) protein levels” value (SAMR1 and SAMP8 mice [2]; both strains) was “increased in a significant way” and the “Tau phosphorylation (Ser396)” value (SAMR1 and SAMP8 mice [2]; both treated mice groups) was “significant reduction”. For the same molecule, the NMDAR2A protein levels (SAMR1 and SAMP8 mice [2]; neither in SR1 nor in SP8) was “did not produce significant differences”, the TrkB-ICD protein levels (SAMR1 and SAMP8 mice [2]; treated mice) was “reduced” and the “time sniffing the intruder (sociability)” value (SAMR1 and SAMP8 mice [3]) was “significantly augmented”.
